Measured values from patent publication US20040072287A1 (priority 2003, published 2004).
“And” between values parts separate entries of the source, which are not always exact repeats. Identical values can stand only once. Ends that are not written are not given here.

Tests used:
GOTO cells = assay: aequorin bioluminescence assay in GOTO cells without exogenous MCHR1 (aequorin only, or no plasmids); format: cell-based, human
Method: The aequorin bioluminescence assay can be used to measure the activity of G protein-coupled receptors that couple through the Ga protein subunit family consisting of Gq, G11, and Gi leading to the activation of phospholipase C, mobilization of intracellular calcium and activation of protein kinase C. Measurement of functional MCHR1 expression in GOTO cells transiently expressing aequorin was performed using a Luminoskan RT luminometer (Labsystems Inc., Gaithersburg, Md.) controlled by custom software written for a Macintosh PowerPC 6100.
GOTO cells (1.2×10^7 cells plated 18 hours before transfection in a T75 flask) were transfected with human MCHR1 plasmid DNA and aequorin cDNA using the Lipofectamine 2000 procedure (Life Technologies, Gaithersburg, Md.). Human MCHR1 plasmid DNA contained the open reading frame cDNA (SEQ. ID. NO. 2) encoding the human MCHR1 receptor inserted in the mammalian expression vector pcDNA-3 (Invitrogen, Carlsbad, Calif.). An aequorin expressing plasmid contained the cDNA for aequorin (Button, et al., 1993. Cell Calcium 14, 663-671), inserted in pcDNA-3. Following approximately 40 hours of expression the apo-aequorin in the cells was charged for 1 hour with coelenterazine (10 μM) under reducing conditions (300 μM reduced glutathione) in ECB buffer (140 mM NaCl, 20 mM KCl, 20 mM HEPES-NaOH [pH=7.4], 5 mM glucose, 1 mM MgCl2, 1 mM CaCl2, 0.1 mg/ml bovine serum albumin). The cells were harvested, washed once in ECB medium and resuspended to 500,000 cells/ml or 1,000,000cells/ml.
Lysophosphatidic acid triggers native edg receptors coupled to PLC activation present on GOTO cells. The integrated light emission was recorded over 30 seconds, in 0.5 second units. 20 μL of lysis buffer (0.1% final Triton X-100 concentration) was then injected and the integrated light emission recorded over 10 seconds, in 0.5 second units. The “fractional response” values for each well were calculated by taking the ratio of the integrated response to the initial challenge to the total integrated luminescence including the Triton X-100 lysis response.

[1] = molecular target: human melanin-concentrating hormone receptor 1 (MCHR1) (human) (UniProt Q99705); assay: cell-based or functional assay
human melanin-concentrating hormone receptor 1 (MCHR1) (human), sequence (Q99705 whole entry): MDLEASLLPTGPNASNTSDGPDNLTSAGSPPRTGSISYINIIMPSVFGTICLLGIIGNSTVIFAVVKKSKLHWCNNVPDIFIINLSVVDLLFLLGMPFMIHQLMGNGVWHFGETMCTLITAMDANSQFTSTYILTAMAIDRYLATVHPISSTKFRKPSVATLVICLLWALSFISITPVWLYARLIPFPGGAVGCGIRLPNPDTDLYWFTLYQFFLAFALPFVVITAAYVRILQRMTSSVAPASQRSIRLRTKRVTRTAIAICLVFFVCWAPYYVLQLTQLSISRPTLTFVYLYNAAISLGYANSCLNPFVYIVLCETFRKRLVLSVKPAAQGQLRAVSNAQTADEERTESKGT

human MCHR1 = molecular target: T1, human MCHR1 (Homo sapiens, UniProt Q99705); assay: aequorin bioluminescence assay in GOTO cells co-transfected with aequorin and human MCHR1; format: cell-based; conditions: 1 μM; GOTO cells transfected with AEQ + MCHR1
T1 construct: expressed in transfected cells; host or cells: GOTO human neuroblastoma cells, transient co-transfection with aequorin cDNA (pcDNA-3, Lipofectamine 2000)
T1 sequence (Q99705 whole entry): as above
Method: 20 μL of lysis buffer (0.1% final Triton X-100 concentration) was then injected and the integrated light emission recorded over 10 seconds, in 0.5 second units. The “fractional response” values for each well were calculated by taking the ratio of the integrated response to the initial challenge to the total integrated luminescence including the Triton X-100 lysis response.

[2] = 1 μM, GOTO cells, No Aeq (no aequorin and no MCHR1 plasmid)

Row | Substance | bioluminescence (GOTO cells; [2]) [cps] | signal over background (in words) (GOTO cells; GOTO cells, absence of exogenous MCHR1, background = buffer injection only (ECB)) | aequorin bioluminescence (cps), GOTO cells transfected with AEQ + MCHR1, MCH (1 µM) [1] | bioluminescence (human MCHR1) [cps] | bioluminescence (GOTO cells; 1 μM, GOTO cells transfected with AEQ only (no MCHR1 plasmid)) [cps] | control response, calcium mobilization via edg receptor (in words) (GOTO cells; 1 μM, GOTO cells, native edg receptor)
1 | Melanin-concentrating hormone (DFDMLRCMLGRVYRPCWQV; ends and bridges not checked; also: cyclic, ring closure not given here) [MCH] | 0 | no signal over background |  |  |  | 
2 | Melanin-concentrating hormone (MCH) (from UniProt P20382 147-165) (peptide) |  |  | 26.4 cps and 26.6 cps |  |  | 
3 | lysophosphatidic acid [LPA] | 0 |  |  | 6.83 | 5.24 | control response evoked
